Test results published in ChEMBL document CHEMBL1152484, “3D-QSAR studies on the inhibitors of AP-1 and NF-kappaB mediated transcriptional activation” (Eur J Med Chem, 2009).

Assay: Inhibition of AP-1/NF-kappaB transfected in human jurkat T cells assessed as inhibition of transcriptional activation
Format: cell-based

Structure (SMILES) | IC50 [nM]
CC1=CC(=O)N(Nc2nc(C(F)(F)F)nc3ccccc23)C1=O | 100
CC1=CC(=O)N(Nc2nc(C(F)(F)F)nc3ccc(S(C)(=O)=O)cc23)C1=O | 8990
COc1ccc2nc(C(F)(F)F)nc(NN3C(=O)C=C(C)C3=O)c2c1 | 30
COc1ccc2c(NN3C(=O)C=C(C)C3=O)nc(-c3cccs3)nc2c1 | 20
COc1cccc2c(NN3C(=O)C=C(C)C3=O)nc(-c3cccs3)nc12 | 50
CC1=CC(=O)N(Nc2nc(-c3cccs3)nc3ccccc23)C1=O | 60
CC1=CC(=O)N(Nc2nc(-c3cccs3)nc3ccc(Cl)cc23)C1=O | 20
CC1=CC(=O)N(Nc2nc(C(F)(F)F)nc3ccc(O)cc23)C1=O | 100
CC1=CC(=O)N(Nc2nc(-c3cccs3)nc3cccc(F)c23)C1=O | 50
COc1cccc2nc(C(F)(F)F)nc(NN3C(=O)C=C(C)C3=O)c12 | 10
CC1=CC(=O)N(Nc2nc(-c3cccs3)nc3cc(N4CCOCC4)ccc23)C1=O | 200
CSc1ccc2nc(C(F)(F)F)nc(NN3C(=O)C=C(C)C3=O)c2c1 | 80
CCOC(=O)c1cnc(-c2cccc(OC)c2)nc1NN1C(=O)C=C(C)C1=O | 5000
CCOC(=O)c1cnc(-c2ccc(C(F)(F)F)cc2)nc1NN1C(=O)C=C(C)C1=O | 400
CC1=CC(=O)N(Nc2nc(-c3cccs3)ncc2C2=NCCO2)C1=O | 200
CCOC(=O)c1cnc(-c2cc(Cl)cc(Cl)c2)nc1NN1C(=O)C=C(C)C1=O | 300
CCOC(=O)c1cnc(-c2ccccc2)nc1N(C(C)=O)N1C(=O)C=C(C)C1=O | 4000
CCOC(=O)c1cnc(-c2ccc(OC)cc2)nc1NN1C(=O)C=C(C)C1=O | 899
CCOC(=O)c1cnc(-c2ccncc2)nc1NN1C(=O)C=C(C)C1=O | 6000
CCOC(=O)c1cnc(Cc2ccccc2)nc1NN1C(=O)C=C(C)C1=O | 7000
COc1cc2c(NN3C(=O)C=C(C)C3=O)nc(-c3cccs3)nc2c(OC)c1OC | 40

Structure (SMILES) | IC50 [nM]
CC1=CC(=O)N(Nc2nc(-c3cccs3)nc3cc(N(C)C)ccc23)C1=O | 40
CC1=CC(=O)N(Nc2nc(C(F)(F)F)nc3cc(N(C)C)ccc23)C1=O | 20
COc1ccc2nc(-c3cccs3)nc(NN3C(=O)C=C(C)C3=O)c2c1 | 3
CCOC(=O)c1cnc(CC)nc1N(C)N1C(=O)C=C(C)C1=O | 10000
CCOC(=O)c1cnc(-c2cccc(Br)c2)nc1NN1C(=O)C=C(C)C1=O | 700
CCOC(=O)c1cnc(Oc2ccccc2)nc1NN1C(=O)C=C(C)C1=O | 15000
CCOC(=O)c1cnc(-c2ccc(Cl)cc2)nc1NN1C(=O)C=C(C)C1=O | 300
CC1=CC(=O)N(Nc2nc(-c3cccs3)ncc2C#N)C1=O | 5000
CCOC(=O)c1cnc(-c2cccs2)nc1N(C)N1C(=O)C=C(C)C1=O | 1000
CCOC(=O)c1cnc(-c2cnc3ccccc3c2)nc1NN1C(=O)C=C(C)C1=O | 10000
CCOC(=O)c1cnc(C)nc1NN1C(=O)C=C(C)C1=O | 16000
CCOC(=O)c1cnc(-c2cc3ccccc3s2)nc1NN1C(=O)C=C(C)C1=O | 4000
CCOC(=O)c1cnc(CC2=CCCCC2)nc1NN1C(=O)C=C(C)C1=O | 2000
CC1=CC(=O)N(Nc2nc(-c3cccs3)ncc2-c2nnn(C)n2)C1=O | 200
CCOC(=O)c1cnc(-c2ccc(F)cc2)nc1N(C)N1C(=O)C=C(C)C1=O | 3000
CCOC(=O)c1cnc(CC)nc1NN1C(=O)C=C(C)C1=O | 10000
CCOC(=O)c1cnc(-c2ccsc2)nc1NN1C(=O)C=C(C)C1=O | 100
CCOC(=O)c1cnc(-c2cc(Cl)nc(Cl)c2)nc1NN1C(=O)C=C(C)C1=O | 2000
CC1=CC(=O)N(Nc2nc(-c3cccs3)ncc2-c2cc(C)no2)C1=O | 300
CCOC(=O)c1cnc(Sc2ccccc2)nc1NN1C(=O)C=C(C)C1=O | 1000
CCOC(=O)c1cnc(-n2nc(C)cc2C)nc1NN1C(=O)C=C(C)C1=O | 10000

The remaining compounds from weak to strong by IC50, led by results:

IC50 [nM] | Structure (SMILES)
20000 | CCOC(=O)c1cnc(C(F)(F)F)nc1NN1C(=O)C=C(c2ccccc2)C1=O
10000 | CCOC(=O)c1cnc(S(=O)(=O)c2ccccc2)nc1NN1C(=O)C=C(C)C1=O
10000 | CCOC(=O)c1cnc(C(F)(F)F)nc1NN1C(=O)C=CC1=O
10000 | CCOC(=O)c1cnc(C(F)(F)F)nc1NN1C(=O)C(C)=C(C)C1=O
8000 | CCOC(=O)c1cnc(-c2csc(C)n2)nc1NN1C(=O)C=C(C)C1=O
7000 | CCOC(=O)c1cnc(-c2cccc([N+](=O)[O-])c2)nc1NN1C(=O)C=C(C)C1=O
2000 | CCOC(=O)c1cnc(-c2ccccc2)nc1N(C)N1C(=O)C=C(C)C1=O
1000 | CC1=CC(=O)N(Nc2nc(C(F)(F)F)nc3ccc([S+](C)[O-])cc23)C1=O (stereo not drawn)
1000 | CCOC(=O)c1cnc(C2CC2)nc1NN1C(=O)C=C(C)C1=O
1000 | CCOC(=O)c1cnc(C(C)(C)C)nc1NN1C(=O)C=C(C)C1=O
1000 | CCOC(=O)c1cnc(C(F)(F)F)nc1NN1C(=O)C=C(C)C1=O
700 | CCOC(=O)c1cnc(-c2ccc(F)cc2)nc1NN1C(=O)C=C(C)C1=O
400 | CC1=CC(=O)N(Nc2nc(C(F)(F)F)nc3cccc(C)c23)C1=O
300 | CC1=CC(=O)N(Nc2nc(-c3cccs3)ncc2-c2nnc(C)o2)C1=O
300 | CCOC(=O)c1cnc(-c2ccc(Cl)s2)nc1NN1C(=O)C=C(C)C1=O
200 | CC1=CC(=O)N(Nc2nc(C(F)(F)F)nc3cc(N4CCCCC4)ccc23)C1=O
200 | CC1=CC(=O)N(Nc2nc(-c3cccs3)ncc2-c2nc(C)co2)C1=O
200 | CCOC(=O)c1cnc(-c2ccc(C)s2)nc1NN1C(=O)C=C(C)C1=O
200 | CCOC(=O)c1cnc(C(=O)c2ccco2)nc1NN1C(=O)C=C(C)C1=O
200 | CCOC(=O)c1cnc(SC)nc1NN1C(=O)C=C(C)C1=O
100 | CC1=CC(=O)N(Nc2nc(-c3ccccc3)nc3ccccc23)C1=O
100 | CCOC(=O)c1cnc(-c2ccccc2)nc1NN1C(=O)C=C(C)C1=O
50 | COc1cc2nc(-c3cccs3)nc(NN3C(=O)C=C(C)C3=O)c2cc1OC
20 | CC1=CC(=O)N(Nc2nc(-c3cccs3)nc3cccc(C)c23)C1=O
20 | CCOC(=O)c1cnc(-c2cccs2)nc1NN1C(=O)C=C(C)C1=O
8 | COc1cccc2nc(-c3cccs3)nc(NN3C(=O)C=C(C)C3=O)c12 [AS-602868]
